Results from US20250313563A1, “GLYCOGEN SYNTHASE KINASE 3 INHIBITORS AND USES THEREOF” (The Broad Institute, Inc., priority 2022, published 2025).
Like-named read-outs stand apart in the source and are kept apart here.

Tests used:
[1] = molecular target: GSK3α (GST-full length GSK3α) (Homo sapiens (Human), UniProt P49840); assay: GSK3α TR-FRET kinase assay; assay type: biochemical
Summary of the method: (§1)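 In this time-resolved FRET format, kinase reactions contained 200 nM biotinylated, S645-phosphorylated glycogen synthase 631-650 peptide and either isoform-specific ATP (2 μM GSK3b, 4 μM GSK3α) or 1 mM ATP. They were quenched with EDTA after 100 min at ambient temperature. Inhibition curves gave IC50 values.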

[2] = molecular target: GSK3b (GST-full length GSK3b) (Homo sapiens (Human), UniProt P49841); assay: GSK3b TR-FRET kinase assay; assay type: biochemical
Summary of the method: as §1

[3] = 1 nM GSK3α, 4 μM ATP, 30 minute preincubation, Table 16, read-out: GSK3-A TR-FRET BIOCHEMICAL (TR-FRET), IC50
[4] = 1 nM GSK3b, 2 μM ATP, 30 minute preincubation, Table 16, read-out: GSK3-B TR-FRET BIOCHEMICAL (TR-FRET), IC50
[5] = 1 nM GSK3α, 4 μM ATP, 30 minute preincubation, Table 16, read-out: GSK3-A TR-FRET BIOCHEMICAL (TR-FRET)
[6] = 1 nM GSK3b, 2 μM ATP, 30 minute preincubation, Table 16, read-out: GSK3-B TR-FRET BIOCHEMICAL (TR-FRET)
[7] = read-out: GSK3-A (TR-FRET 1 mM ATP), GMean, IC50, 1 mM ATP, geometric mean
[8] = read-out: GSK3-B (TR-FRET 1 mM ATP), GMean, IC50, 1 mM ATP, geometric mean

GSK3b (GST-full length GSK3b), sequence (P49841 whole entry): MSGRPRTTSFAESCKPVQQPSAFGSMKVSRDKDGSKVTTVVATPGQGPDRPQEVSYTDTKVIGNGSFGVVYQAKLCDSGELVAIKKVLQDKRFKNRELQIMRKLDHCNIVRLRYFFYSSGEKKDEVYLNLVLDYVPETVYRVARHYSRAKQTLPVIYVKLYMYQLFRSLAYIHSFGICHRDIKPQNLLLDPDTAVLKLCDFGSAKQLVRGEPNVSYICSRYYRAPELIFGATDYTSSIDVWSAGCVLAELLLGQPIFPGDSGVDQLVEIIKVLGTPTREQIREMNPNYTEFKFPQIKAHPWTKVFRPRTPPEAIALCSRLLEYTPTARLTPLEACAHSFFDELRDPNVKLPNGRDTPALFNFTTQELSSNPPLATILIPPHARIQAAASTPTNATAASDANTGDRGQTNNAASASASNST
GSK3α (GST-full length GSK3α), sequence (P49840 whole entry, canonical isoform): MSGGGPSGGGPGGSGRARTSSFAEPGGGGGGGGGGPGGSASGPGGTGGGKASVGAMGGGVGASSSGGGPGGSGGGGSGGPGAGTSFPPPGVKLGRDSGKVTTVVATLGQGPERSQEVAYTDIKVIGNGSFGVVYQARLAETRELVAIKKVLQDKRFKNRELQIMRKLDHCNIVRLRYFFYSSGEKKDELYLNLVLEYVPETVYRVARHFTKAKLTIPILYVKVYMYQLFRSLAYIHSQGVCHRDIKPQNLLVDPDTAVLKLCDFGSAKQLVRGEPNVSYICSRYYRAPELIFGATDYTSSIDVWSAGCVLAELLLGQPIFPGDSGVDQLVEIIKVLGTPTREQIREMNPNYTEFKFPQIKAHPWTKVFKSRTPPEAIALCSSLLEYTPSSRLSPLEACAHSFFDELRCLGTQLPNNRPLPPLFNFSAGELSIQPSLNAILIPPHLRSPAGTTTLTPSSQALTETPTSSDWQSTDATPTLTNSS

| SMILES | IC50 [1, 3] [nM] | IC50 [2, 4] [nM] | IC50 [1, 5] [nM] | IC50 [2, 6] [nM] | also measured |
| --- | --- | --- | --- | --- | --- |
| CC[C@]1(c2cccc(C(F)(F)F)c2)C2=C(Nc3n[nH]cc31)c1ccccc1C2=O [Compound 949743] | ≤ 100 | ≤ 100 |  |  | IC50 ([1]; GSK3-A (TR-FRET 1 mM ATP), GMean, IC50, 1 mM ATP, geometric mean): ≤ 100 nM; IC50 ([2]; GSK3-B (TR-FRET 1 mM ATP), GMean, IC50, 1 mM ATP, geometric mean): 100 to 1000 nM |
| CCC1(c2cccc(C(C)C)c2)C2=C(CC(C)(C)NC2=O)Nc2n[nH]c(C(F)(F)F)c21 (centres unmarked) [Compound 949747] | ≤ 100 | ≤ 100 |  |  |  |
| CCC1(c2cccc(OC)c2)C2=C(CC(C)(C)NC2=O)Nc2n[nH]c(C(F)(F)F)c21 (centres unmarked) [Compound 949748] | ≤ 100 | 100 to 1000 |  |  |  |
| CC[C@]1(c2cccc(C(C)C)c2)C2=C(CC(C)(C)NC2=O)Nc2n[nH]cc21 [Compound 949752] | > 5000 | > 5000 |  |  |  |
| CC[C@]1(c2ccccc2)C2=C(C[C@@]3(CCN(C)C3=O)CC2=O)Nc2n[nH]cc21 [Compound 949753] |  |  | 1000 to 5000 | > 5000 |  |
| CC[C@]1(c2ccccc2)C2=C(C[C@]3(CCN(C)C3=O)CC2=O)Nc2n[nH]cc21 [Compound 949754] |  |  | > 5000 | > 5000 |  |
| CC[C@]1(c2cccc(-c3ccncc3F)c2)C2=C(CC(C)(C)NC2=O)Nc2n[nH]c(Cl)c21 [Compound 949756] | > 5000 | > 5000 |  |  |  |
| CC[C@@]1(c2cccc(-c3ccncc3F)c2)C2=C(CC(C)(C)NC2=O)Nc2n[nH]c(Cl)c21 [Compound 949757] | ≤ 100 | ≤ 100 |  |  | IC50 [1, 7]: 100 to 1000 nM; IC50 [2, 8]: 1000 to 5000 nM |
| CC[C@@]1(c2ccccc2)C2=C(C[C@]3(CCN(C)C3=O)CC2=O)Nc2n[nH]cc21 [Compound 949759] |  |  | > 5000 | > 5000 |  |
| CCC1(c2cccc(C(C)C)c2)C2=C(CC(C)(C)NC2=O)Nc2n[nH]cc21 (centres unmarked) [Compound 949761] | ≤ 100 | 100 to 1000 |  |  | IC50 [1, 7]: 100 to 1000 nM; IC50 [2, 8]: > 5000 nM |
| CCC1(c2cccc(Br)c2)C2=C(CC(C)(C)C2=O)Nc2n[nH]cc21 (centres unmarked) [Compound 949805] | 100 to 1000 | 1000 to 5000 |  |  |  |
| CCC1(c2cccc(C(F)(F)F)c2)C2=C(CCN(c3ccn(C)n3)C2=O)Nc2n[nH]cc21 (centres unmarked) [Compound 949835] | ≤ 100 | 100 to 1000 |  |  |  |
| CC[C@]1(c2cccc(C(F)(F)F)c2)C2=C(CCN(c3ccn(C)n3)C2=O)Nc2n[nH]cc21 [Compound 949836] | 1000 to 5000 | > 5000 |  |  |  |
| CCC1(c2cccc(-c3ccnc(C)c3)c2)C2=C(CC(C)(C)C2=O)Nc2n[nH]cc21 (centres unmarked) [Compound 949840] | 100 to 1000 | 1000 to 5000 |  |  |  |
| CCn1cc(N2CCC3=C(C2=O)[C@](CC)(c2cccc(C(F)(F)F)c2)c2c[nH]nc2N3)cn1 [Compound 949867] | ≤ 100 | 100 to 1000 |  |  |  |
| CCn1cc(N2CCC3=C(C2=O)[C@](CC)(c2cccc(C(F)(F)F)c2)c2c[nH]nc2N3)cn1 [Compound 949868] | 100 to 1000 | > 5000 |  |  |  |
| CCC1(c2cccc(-c3cc(C)nnc3C)c2)C2=C(CC(C)(C)NC2=O)Nc2n[nH]c(C(F)(F)F)c21 (centres unmarked) [Compound 949910] | ≤ 100 | ≤ 100 |  |  |  |
| CC[C@]1(c2cccc(-c3cnn(C)c3)c2)C2=C(CC(C)(C)NC2=O)Nc2n[nH]c(C(F)F)c21 [Compound 949911] | 100 to 1000 | > 5000 |  |  |  |
| CC[C@@]1(c2cccc(-c3cnn(C)c3)c2)C2=C(CC(C)(C)NC2=O)Nc2n[nH]c(C(F)F)c21 [Compound 949919] | ≤ 100 | ≤ 100 |  |  | IC50 [1, 7]: ≤ 100 nM; IC50 [2, 8]: 100 to 1000 nM |
| CC[C@]1(c2cccc(-c3cnn(C4CC4(F)F)c3)c2)C2=C(CC(C)(C)NC2=O)Nc2n[nH]cc21 (some centres unmarked) [Compound 950060] | ≤ 100 | 100 to 1000 |  |  |  |
| CC[C@]1(c2cccc(-c3cnn(C(C)C)c3F)c2)C2=C(CC(C)(C)NC2=O)Nc2n[nH]cc21 [Compound 950061] | 100 to 1000 | > 5000 |  |  |  |
| CCC1(c2cccc(Cc3ncccn3)c2)C2=C(CC(C)(C)NC2=O)Nc2n[nH]cc21 (centres unmarked) [Compound 950151] | ≤ 100 | 1000 to 5000 |  |  |  |
| CCC1(c2cccc(-c3ccnc(C)c3)c2)C2=C(CC(C)(C)NC2=O)Nc2n[nH]c(C(F)F)c21 (centres unmarked) [Compound 950162] | 100 to 1000 | 100 to 1000 |  |  |  |
| CC[C@]1(c2cccc(-c3cnn(C(F)F)c3)c2)C2=C(CC(C)(C)NC2=O)Nc2n[nH]cc21 [Compound 950254] | ≤ 100 | 1000 to 5000 |  |  |  |
| CC[C@@]1(c2cccc(-c3ccnc(C)c3)c2)C2=C(CC(C)(C)C2=O)Nc2n[nH]cc21 [Compound 950282] | ≤ 100 | 100 to 1000 |  |  |  |
| CCC1(c2cccc(Oc3ncccn3)c2)C2=C(CC(C)(C)NC2=O)Nc2n[nH]c(Cl)c21 (centres unmarked) [Compound 950318] | ≤ 100 | ≤ 100 |  |  |  |
| CCC1(c2cccc(-c3ccncc3F)c2)C2=C(CC(C)(C)NC2=O)Nc2n[nH]c(C(F)F)c21 (centres unmarked) [Compound 950320] | ≤ 100 | ≤ 100 |  |  |  |
| CCC1(c2cccc(Oc3ncccn3)c2)C2=C(CC(C)(C)NC2=O)Nc2n[nH]c(C(F)(F)F)c21 (centres unmarked) [Compound 950323] | ≤ 100 | ≤ 100 |  |  |  |

More lines, main results first:

| IC50 [1, 3] [nM] | IC50 [2, 4] [nM] | IC50 [1, 5] [nM] | IC50 [2, 6] [nM] | SMILES | also measured |
| --- | --- | --- | --- | --- | --- |
|  |  | 100 to 1000 | > 5000 | CC[C@@]1(c2ccccc2)C2=C(C[C@@]3(CCN(C)C3=O)CC2=O)Nc2n[nH]cc21 [Compound 949760] |  |
|  |  | 1000 to 5000 | > 5000 | CC[C@]1(c2ccccc2)C2=C(C[C@@]3(CCNC3=O)CC2=O)Nc2n[nH]cc21 [Compound 950160] |  |
|  |  | 1000 to 5000 | > 5000 | CC[C@@]1(c2ccccc2)C2=C(C[C@@]3(CCNC3=O)CC2=O)Nc2n[nH]cc21 [Compound 950161] |  |
|  |  | > 5000 | > 5000 | CC[C@@]1(c2ccccc2)C2=C(C[C@]3(CCNC3=O)CC2=O)Nc2n[nH]cc21 [Compound 950164] |  |
|  |  | > 5000 | > 5000 | CC[C@]1(c2ccccc2)C2=C(C[C@]3(CCNC3=O)CC2=O)Nc2n[nH]cc21 [Compound 950165] |  |
| ≤ 100 | 100 to 1000 |  |  | CC[C@@]1(c2cccc(C(F)(F)F)c2)C2=C(CC(C)(C)C2=O)Nc2n[nH]cc21 [Compound 950272] |  |
| > 5000 | > 5000 |  |  | CCC1(c2cccc(C(F)(F)F)c2)C2=C(CC(C)(C)C2=O)Nc2n[nH]cc21 (centres unmarked) [Compound 950273] |  |
|  |  | ≤ 100 | 100 to 1000 | CCC1(c2cccc(C(F)(F)F)c2)C2=C(CC3(CCNC3=O)CC2=O)Nc2n[nH]cc21 (centres unmarked) [Compound 950324] |  |
|  |  | > 5000 | > 5000 | CC[C@]1(c2cccc(C(F)(F)F)c2)C2=C(C[C@@]3(CCN(C)C3=O)CC2=O)Nc2n[nH]cc21 [Compound 950325] |  |
|  |  | ≤ 100 | ≤ 100 | CCC1(c2cccc(C(F)(F)F)c2)C2=C(CC3(CCN(C)C3=O)CC2=O)Nc2n[nH]cc21 (centres unmarked) [Compound 950329] |  |
|  |  | 100 to 1000 | > 5000 | CCC1(c2cccc(C(F)(F)F)c2)C2=C(CC3(CCN(C)C3=O)CC2=O)Nc2n[nH]cc21 (centres unmarked) [Compound 950330] |  |
|  |  | 100 to 1000 | > 5000 | CCC1(c2cccc(C(F)(F)F)c2)C2=C(CC3(CCNC3=O)CC2=O)Nc2n[nH]cc21 (centres unmarked) [Compound 950331] |  |
|  |  | > 5000 | > 5000 | CC[C@@]1(c2cccc(C(F)(F)F)c2)C2=C(C[C@]3(CCNC3=O)CC2=O)Nc2n[nH]cc21 [Compound 950332] |  |
|  |  | ≤ 100 | 100 to 1000 | CC[C@@]1(c2cccc(C(F)(F)F)c2)C2=C(C[C@@]3(CCNC3=O)CC2=O)Nc2n[nH]cc21 [Compound 950333] |  |
